Legend:
Acetylcholinesterase = target: T1, Acetylcholinesterase (Rattus norvegicus, UniProt P37136)
T1 sequence (P37136 whole entry): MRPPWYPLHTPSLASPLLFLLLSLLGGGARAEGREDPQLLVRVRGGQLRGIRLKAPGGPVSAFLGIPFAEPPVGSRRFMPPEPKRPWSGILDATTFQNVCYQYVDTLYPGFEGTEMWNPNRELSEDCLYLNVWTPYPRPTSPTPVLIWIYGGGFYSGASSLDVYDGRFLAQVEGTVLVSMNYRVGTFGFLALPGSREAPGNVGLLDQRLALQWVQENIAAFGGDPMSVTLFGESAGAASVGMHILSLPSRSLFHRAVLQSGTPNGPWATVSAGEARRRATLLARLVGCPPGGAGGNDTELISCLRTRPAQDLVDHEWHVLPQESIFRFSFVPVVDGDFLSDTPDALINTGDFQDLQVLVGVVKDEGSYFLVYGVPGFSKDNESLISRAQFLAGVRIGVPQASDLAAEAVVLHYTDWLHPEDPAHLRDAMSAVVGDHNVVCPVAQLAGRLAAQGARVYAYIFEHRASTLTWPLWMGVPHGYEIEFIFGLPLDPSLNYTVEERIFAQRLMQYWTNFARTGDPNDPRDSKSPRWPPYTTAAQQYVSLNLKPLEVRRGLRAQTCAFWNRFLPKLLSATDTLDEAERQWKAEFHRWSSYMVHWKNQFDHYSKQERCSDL
Description: Inhibitory potency against acetylcholinesterase (AChE) of rat cortex homogenate with ethopropazine as BChE inhibitor

Butyrylcholinesterase = Butyrylcholinesterase (Rattus norvegicus, UniProt Q9JKC1)
Butyrylcholinesterase, sequence (Q9JKC1 whole entry): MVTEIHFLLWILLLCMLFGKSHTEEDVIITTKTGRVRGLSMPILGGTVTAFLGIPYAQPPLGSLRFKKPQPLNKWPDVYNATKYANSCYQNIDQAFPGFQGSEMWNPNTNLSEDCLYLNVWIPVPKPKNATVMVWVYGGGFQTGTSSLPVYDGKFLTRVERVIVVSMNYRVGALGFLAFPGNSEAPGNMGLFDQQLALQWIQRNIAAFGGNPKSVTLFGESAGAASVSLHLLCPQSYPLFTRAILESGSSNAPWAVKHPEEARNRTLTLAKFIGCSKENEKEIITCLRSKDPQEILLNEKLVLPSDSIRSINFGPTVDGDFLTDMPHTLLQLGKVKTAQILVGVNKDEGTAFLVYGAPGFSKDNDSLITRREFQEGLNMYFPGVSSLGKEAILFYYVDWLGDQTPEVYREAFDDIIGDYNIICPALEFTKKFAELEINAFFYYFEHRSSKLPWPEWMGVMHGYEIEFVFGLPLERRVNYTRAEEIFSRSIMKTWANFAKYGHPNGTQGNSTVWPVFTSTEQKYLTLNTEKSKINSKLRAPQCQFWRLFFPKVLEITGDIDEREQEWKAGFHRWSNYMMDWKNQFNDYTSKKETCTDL
Description: Inhibitory potency against rat serum Butyrylcholinesterase with BW284c51 as AChE inhibitor

SMILES | IC50 (Acetylcholinesterase) [nM] | IC50 (Butyrylcholinesterase) [nM]
Oc1ccc2c(n1)CCCC2NCCCCCCNc1c2c(nc3ccccc13)CCCC2 (racemic) | 37.1 | 223
Oc1ccc2c(n1)CCCC2NCCCCNc1c2c(nc3ccccc13)CCCC2 (racemic) | 42.6 | 228
Oc1ccc2c(n1)CCCC2NCCCCCCCNc1c2c(nc3ccccc13)CCCC2 (racemic) | 53.1 | 233
Oc1ccc2c(n1)CCCC2NCCCCCNc1c2c(nc3ccccc13)CCCC2 (racemic) | 122 | 220
Oc1ccc2c(n1)CCCC2NCCCCCCCCCNc1c2c(nc3ccccc13)CCCC2 (racemic) | 36.3 | 150
O=c1ccc2c([nH]1)CCCC2NCCCCCCCCCCNc1c2c(nc3ccccc13)CCCC2 (racemic) |  | 81.5
O=c1ccc2c([nH]1)CCCC2NCCCCCCCCCCCCNc1c2c(nc3ccccc13)CCCC2 (racemic) | 112 | 434
O=c1ccc2c([nH]1)CCCC2NCCCCCCCCNc1c2c(nc3ccccc13)CCCC2 (racemic) | 26.2 | 166
